PubChem BioAssay (NCI)
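Five compound concentrations were applied to cells in 96-well plates for 48 hours; endpoints were derived by simple linear interpolation of the resulting dose-response curve. GI50 = concentration required for 50% inhibition of growth. TGI marks complete inhibition of growth.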

Assays:
Assay in all cases: growth of human tumour cells (NCI), 48 h
786-0 renal = system: 786-0 renal
A498 renal = system: A498 renal
A549 NSCLC = system: A549 NSCLC
ACHN renal = system: ACHN renal
BT-549 breast = system: BT-549 breast
CAKI-1 renal = system: CAKI-1 renal
CCRF-CEM leukemia = system: CCRF-CEM leukemia
COLO 205 colon = system: COLO 205 colon
DU-145 prostate = system: DU-145 prostate
EKVX NSCLC = system: EKVX NSCLC
HCC-2998 colon = system: HCC-2998 colon
HCT-116 colon = system: HCT-116 colon
HCT-15 colon = system: HCT-15 colon
HL-60(TB) leukemia = system: HL-60(TB) leukemia
HOP-62 NSCLC = system: HOP-62 NSCLC
HOP-92 NSCLC = system: HOP-92 NSCLC
HS 578T breast = system: HS 578T breast
HT29 colon = system: HT29 colon
IGROV1 ovarian = system: IGROV1 ovarian
K-562 leukemia = system: K-562 leukemia
KM12 colon = system: KM12 colon
LOX IMVI melanoma = system: LOX IMVI melanoma
M14 melanoma = system: M14 melanoma
MALME-3M melanoma = system: MALME-3M melanoma
MCF7 breast = system: MCF7 breast
MDA-MB-231 breast = system: MDA-MB-231 breast
MDA-MB-435 = system: MDA-MB-435
MOLT-4 leukemia = system: MOLT-4 leukemia
NCI-H226 lung = system: NCI-H226 lung
NCI-H460 lung = system: NCI-H460 lung
NCI-H522 lung = system: NCI-H522 lung
NCI/ADR-RES ovarian = system: NCI/ADR-RES ovarian
OVCAR-3 ovarian = system: OVCAR-3 ovarian
OVCAR-4 ovarian = system: OVCAR-4 ovarian
OVCAR-5 ovarian = system: OVCAR-5 ovarian
OVCAR-8 ovarian = system: OVCAR-8 ovarian
PC-3 prostate = system: PC-3 prostate
RPMI-8226 leukemia = system: RPMI-8226 leukemia
RXF 393 renal = system: RXF 393 renal
SF-268 CNS = system: SF-268 CNS
SF-295 CNS = system: SF-295 CNS
SF-539 CNS = system: SF-539 CNS
SK-MEL-2 melanoma = system: SK-MEL-2 melanoma
SK-MEL-28 melanoma = system: SK-MEL-28 melanoma
SK-MEL-5 melanoma = system: SK-MEL-5 melanoma
SK-OV-3 ovarian = system: SK-OV-3 ovarian
SN12C renal = system: SN12C renal
SNB-19 CNS = system: SNB-19 CNS
SNB-75 CNS = system: SNB-75 CNS
SR leukemia = system: SR leukemia
SW-620 colon = system: SW-620 colon
T-47D breast = system: T-47D breast
TK-10 renal = system: TK-10 renal
U251 CNS = system: U251 CNS
UACC-257 melanoma = system: UACC-257 melanoma
UACC-62 melanoma = system: UACC-62 melanoma
UO-31 renal = system: UO-31 renal

Question: How did the GI50 (786-0 renal) turn out when `O=C1Nc2cc(Cl)ccc2/C1=C\c1ccc(OCc2ccc(Br)cc2F)cc1` was run?
Answer: 1.98 µM

Question: What about the TGI (786-0 renal) of the same compound?
Answer: 3.66 µM

Question: What about the GI50 (A498 renal) of the same compound?
Answer: 2.5 µM

Question: What about the TGI (A498 renal) of the same compound?
Answer: 5.95 µM

Question: What about the GI50 (A549 NSCLC) of the same compound?
Answer: 2.04 µM

Question: What about the TGI (A549 NSCLC) of the same compound?
Answer: 4.62 µM

Question: And the GI50 (ACHN renal)?
Answer: 1.83 µM

Question: And the TGI (ACHN renal)?
Answer: 4.04 µM

Question: And the GI50 (BT-549 breast)?
Answer: 2.1 µM

Question: What about the TGI (BT-549 breast) of the same compound?
Answer: 4.69 µM

Question: What about the GI50 (CAKI-1 renal) of the same compound?
Answer: 1.67 µM

Question: What about the TGI (CAKI-1 renal) of the same compound?
Answer: 3.35 µM

Question: And the GI50 (CCRF-CEM leukemia)?
Answer: 3.74 µM

Question: And the TGI (CCRF-CEM leukemia)?
Answer: 22 µM

Question: And the GI50 (COLO 205 colon)?
Answer: 2.58 µM

Question: And the TGI (COLO 205 colon)?
Answer: 12.4 µM

Question: What about the GI50 (DU-145 prostate) of the same compound?
Answer: 2.93 µM

Question: What about the TGI (DU-145 prostate) of the same compound?
Answer: > 100 µM

Question: What about the GI50 (EKVX NSCLC) of the same compound?
Answer: 3.85 µM

Question: What about the TGI (EKVX NSCLC) of the same compound?
Answer: 18 µM

Question: And the GI50 (HCC-2998 colon)?
Answer: 4.14 µM

Question: What about the TGI (HCC-2998 colon) of the same compound?
Answer: 37.4 µM

Question: And the GI50 (HCT-116 colon)?
Answer: 1.38 µM

Question: And the TGI (HCT-116 colon)?
Answer: 2.87 µM

Question: What about the GI50 (HCT-15 colon) of the same compound?
Answer: 3.55 µM

Question: What about the TGI (HCT-15 colon) of the same compound?
Answer: 50.1 µM

Question: What about the GI50 (HL-60(TB) leukemia) of the same compound?
Answer: 53 µM

Question: What about the TGI (HL-60(TB) leukemia) of the same compound?
Answer: > 100 µM

Question: What about the GI50 (HOP-62 NSCLC) of the same compound?
Answer: 1.79 µM

Question: What about the TGI (HOP-62 NSCLC) of the same compound?
Answer: 3.76 µM

Question: And the GI50 (HOP-92 NSCLC)?
Answer: 1.22 µM

Question: And the TGI (HOP-92 NSCLC)?
Answer: 3.85 µM

Question: And the GI50 (HS 578T breast)?
Answer: 1.91 µM

Question: What about the TGI (HS 578T breast) of the same compound?
Answer: 6.2 µM

Question: What about the GI50 (HT29 colon) of the same compound?
Answer: 2.37 µM

Question: What about the TGI (HT29 colon) of the same compound?
Answer: 6.4 µM

Question: And the GI50 (IGROV1 ovarian)?
Answer: 2.07 µM

Question: And the TGI (IGROV1 ovarian)?
Answer: 5.13 µM

Question: And the GI50 (K-562 leukemia)?
Answer: 3.3 µM

Question: What about the TGI (K-562 leukemia) of the same compound?
Answer: > 100 µM

Question: What about the GI50 (KM12 colon) of the same compound?
Answer: 3.12 µM

Question: What about the TGI (KM12 colon) of the same compound?
Answer: 73.7 µM

Question: What about the GI50 (LOX IMVI melanoma) of the same compound?
Answer: 1.49 µM

Question: What about the TGI (LOX IMVI melanoma) of the same compound?
Answer: 2.88 µM

Question: And the GI50 (M14 melanoma)?
Answer: 2.27 µM

Question: What about the TGI (M14 melanoma) of the same compound?
Answer: 6.69 µM

Question: And the GI50 (MALME-3M melanoma)?
Answer: 1.97 µM

Question: And the TGI (MALME-3M melanoma)?
Answer: 4.27 µM

Question: And the GI50 (MCF7 breast)?
Answer: 1.25 µM

Question: What about the TGI (MCF7 breast) of the same compound?
Answer: 15.2 µM

Question: And the GI50 (MDA-MB-231 breast)?
Answer: 2.2 µM

Question: What about the TGI (MDA-MB-231 breast) of the same compound?
Answer: 5.34 µM

Question: What about the GI50 (MDA-MB-435) of the same compound?
Answer: 2.26 µM

Question: What about the TGI (MDA-MB-435) of the same compound?
Answer: 5.38 µM

Question: And the GI50 (MOLT-4 leukemia)?
Answer: 3.57 µM

Question: And the TGI (MOLT-4 leukemia)?
Answer: 26.1 µM

Question: And the GI50 (NCI-H226 lung)?
Answer: 2.19 µM

Question: And the TGI (NCI-H226 lung)?
Answer: 6.89 µM

Question: And the GI50 (NCI-H460 lung)?
Answer: 0.459 µM

Question: And the TGI (NCI-H460 lung)?
Answer: 1.7 µM

Question: What about the GI50 (NCI-H522 lung) of the same compound?
Answer: 1.8 µM

Question: And the TGI (NCI-H522 lung)?
Answer: 4.33 µM

Question: And the GI50 (NCI/ADR-RES ovarian)?
Answer: 2.31 µM

Question: And the TGI (NCI/ADR-RES ovarian)?
Answer: 6 µM

Question: And the GI50 (OVCAR-3 ovarian)?
Answer: 2.08 µM

Question: And the TGI (OVCAR-3 ovarian)?
Answer: 4.72 µM

Question: What about the GI50 (OVCAR-4 ovarian) of the same compound?
Answer: 1.84 µM

Question: What about the TGI (OVCAR-4 ovarian) of the same compound?
Answer: 3.71 µM

Question: What about the GI50 (OVCAR-5 ovarian) of the same compound?
Answer: 4.16 µM

Question: What about the TGI (OVCAR-5 ovarian) of the same compound?
Answer: > 100 µM

Question: What about the GI50 (OVCAR-8 ovarian) of the same compound?
Answer: 2.46 µM

Question: What about the TGI (OVCAR-8 ovarian) of the same compound?
Answer: 6.89 µM

Question: And the GI50 (PC-3 prostate)?
Answer: 1.7 µM

Question: And the TGI (PC-3 prostate)?
Answer: 3.49 µM

Question: And the GI50 (RPMI-8226 leukemia)?
Answer: 3.71 µM

Question: And the TGI (RPMI-8226 leukemia)?
Answer: > 100 µM

Question: What about the GI50 (RXF 393 renal) of the same compound?
Answer: 1.65 µM

Question: What about the TGI (RXF 393 renal) of the same compound?
Answer: 3.2 µM

Question: What about the GI50 (SF-268 CNS) of the same compound?
Answer: 2.29 µM

Question: What about the TGI (SF-268 CNS) of the same compound?
Answer: 6.34 µM

Question: What about the GI50 (SF-295 CNS) of the same compound?
Answer: 1.89 µM

Question: And the TGI (SF-295 CNS)?
Answer: 3.5 µM

Question: And the GI50 (SF-539 CNS)?
Answer: 1.66 µM

Question: And the TGI (SF-539 CNS)?
Answer: 3.18 µM

Question: And the GI50 (SK-MEL-2 melanoma)?
Answer: 2.97 µM

Question: And the TGI (SK-MEL-2 melanoma)?
Answer: 9.98 µM

Question: What about the GI50 (SK-MEL-28 melanoma) of the same compound?
Answer: 2.84 µM

Question: And the TGI (SK-MEL-28 melanoma)?
Answer: 8.37 µM

Question: And the GI50 (SK-MEL-5 melanoma)?
Answer: 5.53 µM

Question: What about the TGI (SK-MEL-5 melanoma) of the same compound?
Answer: 82.4 µM

Question: And the GI50 (SK-OV-3 ovarian)?
Answer: 1.69 µM

Question: What about the TGI (SK-OV-3 ovarian) of the same compound?
Answer: 3.33 µM

Question: What about the GI50 (SN12C renal) of the same compound?
Answer: 1.86 µM

Question: What about the TGI (SN12C renal) of the same compound?
Answer: 4.09 µM

Question: And the GI50 (SNB-19 CNS)?
Answer: 1.92 µM

Question: What about the TGI (SNB-19 CNS) of the same compound?
Answer: 4.29 µM

Question: What about the GI50 (SNB-75 CNS) of the same compound?
Answer: 1.81 µM

Question: What about the TGI (SNB-75 CNS) of the same compound?
Answer: 3.39 µM

Question: And the GI50 (SR leukemia)?
Answer: 2.59 µM

Question: And the TGI (SR leukemia)?
Answer: 8.18 µM

Question: And the GI50 (SW-620 colon)?
Answer: 1.9 µM

Question: What about the TGI (SW-620 colon) of the same compound?
Answer: 4.56 µM

Question: What about the GI50 (T-47D breast) of the same compound?
Answer: 2.3 µM

Question: What about the TGI (T-47D breast) of the same compound?
Answer: 6.6 µM

Question: And the GI50 (TK-10 renal)?
Answer: 2.51 µM

Question: And the TGI (TK-10 renal)?
Answer: 4.59 µM

Question: What about the GI50 (U251 CNS) of the same compound?
Answer: 1.69 µM

Question: What about the TGI (U251 CNS) of the same compound?
Answer: 3.21 µM

Question: What about the GI50 (UACC-257 melanoma) of the same compound?
Answer: 3.3 µM

Question: And the TGI (UACC-257 melanoma)?
Answer: 18.4 µM

Question: And the GI50 (UACC-62 melanoma)?
Answer: 1.68 µM

Question: What about the TGI (UACC-62 melanoma) of the same compound?
Answer: 3.35 µM

Question: What about the GI50 (UO-31 renal) of the same compound?
Answer: 1.49 µM

Question: And the TGI (UO-31 renal)?
Answer: 4.75 µM
